Measurements reported in patent US11702417B2, “Compounds for improving mRNA splicing” (The General Hospital Corporation, priority 2015, dated 2023).

Tested on: FD (familial dysautomonia) IKBKAP minigene, exon 20 inclusion, in HEK293T cells
Experiment: Primary splicing assay (FD IKBKAP minigene, Firefly/Renilla luciferase reporter in HEK293T)
Type: cell-based, human
Details: Homo sapiens, HEK-293T, Firefly/Renilla ratio, 24 hours of treatment; for EC (maximum kinetin efficacy): HEK293T, read-out: ECk (compound concentration at which the maximum kinetin efficacy (200 μM) is reached); for Emax: max efficacy in Primary Assay, kinetin and DMSO as positive and negative controls, read-out: Emax (%)
Protocol: As used herein, the expression “ECk” refers to the compound concentration at which the maximum kinetin efficacy (200 μM) is reached.
Splicing analysis was made possible by using an FD (familial dysautomonia) IKBKAP minigene which contained exon 19 through exon 21, including intervening introns, and also the T→C Thymine to cytosine transition located 6 base-pairs from the end of IKBKAP exon 20; See SEQ ID NO:3 for the complete sequence of plasmid pcDNA3.1/V5HisTOPO with Renilla-Familial Dysautonomia minigene-Firefly. Firefly luciferase (SEQ ID NO:14) was utilized as a splicing reporter, located downstream of exon 21, and Renilla luciferase (SEQ ID NO:13) was used as a control, located upstream of exon 19. The sequence of exon 19 is presented as SEQ ID NO:7; the Intron between Exon 19 and Exon 20 is SEQ ID NO:8; exon 20 is SEQ ID NO:9; the intron between […]; exon 21 is SEQ ID NO: 11, and the spliced sequence of exons 19-20-21 is SEQ ID NO:12. HEK293T cells were plated in a 6-well plate 24 hours prior to transfection. Transfection was carried out using a mixture of Opti-MEM (GIBCO ref. 31985), IKBKAP minigene, and Fugene HID (PROMEGA ref. E2311), incubated in DMEM media containing HEK293T cells at 37° C. The ratio of Opti-MEM, minigene, and Fugene was kept at approximately 9:1.5:1, with a total volume of 150 μL of transfection mixture applied per well.
After 4 hours of transfection, the cells were then plated in a 96-well plate coated with poly-L-lysine (SIGMA cat.P4707) for treatment scheduled 24 hours later. […] After 24 hours of treatment, cells were washed in the poly-L-lysine coated 96-well plate using PBS and subsequently harvested using Passive Lysis Buffer (Promega cat.E196). Cell lysate was transferred to a black and white 96-well plate and analyzed for splicing correction using a Glomax luminometer (PROMEGA GloMax® 96 Microplate Luminometer w/Dual Injectors cat.E6521) and Promega Dual Glo Firefly and Stop and Glo Renilla reagents (Cat.E196). The compound's ability to correct splicing and promote exon 20 inclusion was marked by an increase in Firefly signal. Renilla signal, which is independent of exon 20 inclusion, was used to correct for cell number. Using the ratio of Firefly to Renilla signal, a dose response curve was produced, which referenced kinetin and DMSO Firefly/Renilla ratios as positive and negative controls, respectively.

Compound | EC (maximum kinetin efficacy) | Emax
OCCn1ncc2c(NCc3ccco3)nc(Cl)nc21 [(209)] | 12.2 µM | 176%
Clc1nc(NCc2ccncn2)c2c(Cl)c[nH]c2n1 [(210)] | 69.2 µM | 104%
OCCn1cc(Cl)c2c(NCc3ccco3)nc(Cl)nc21 [(211)] | 7.73 µM | 204%
FCCn1cc(Cl)c2c(NCc3ccco3)nc(Cl)nc21 [(212)] | – | 71%
CNCCn1ccc2c(NCc3ccco3)nc(Cl)nc21 [(213)] | – | 36%
FCCn1ncc2c(NCc3ccco3)nc(Cl)nc21 [(214)] | 11.2 µM | 197%
C[C@@H](C#N)n1ccc2c(NCc3ccco3)nc(Cl)nc21 [(216)] | – | 16%
Clc1nc(NCc2ccncc2)c2cn[nH]c2n1 [(217)] | 7.07 µM | 151%
OCCn1ncc2c(NCc3ccncc3)nc(Cl)nc21 [(218)] | 21 µM | 154%
Clc1nc(NCc2ccncn2)c2cn[nH]c2n1 [(220)] | 8.62 µM | 153%
O=C(NCCO)c1cc2c(NCc3ccco3)nc(Cl)nc2[nH]1 [(221)] | – | 86%
Clc1nc(NCc2nccs2)c2cn[nH]c2n1 [(222)] | 8.99 µM | 146%
N#Cc1cc2c(NCc3ccco3)nc(Cl)nc2[nH]1 [(223)] | – | 95%
N#CCc1nc2c(NCc3ccco3)nc(Cl)nc2[nH]1 [(224)] | 9.49 µM | 139%
OCCCNc1nc2c(NCc3ccco3)nc(Cl)nc2[nH]1 [(225)] | 21.1 µM | 114%
Fc1cnccc1CNc1nc(Cl)nc2[nH]ccc12 [(226)] | 1.8 µM | 191%
Fc1cnccc1CNc1nc(Cl)nc2[nH]cnc12 [(227)] | 23.3 µM | 163%
Clc1nc(NCc2ccncc2Cl)c2cc[nH]c2n1 [(228)] | 15.7 µM | 152%
Clc1nc(NCc2ccncc2Cl)c2nc[nH]c2n1 [(229)] | – | 55%
Clc1nc(NCc2ccco2)c2nc(C3CCC3)[nH]c2n1 [(231)] | – | 77%
COC(=O)c1nc2c(NCc3ccco3)nc(Cl)nc2[nH]1 [(232)] | – | 59%
CCOc1nc2c(NCc3ccco3)nc(Cl)nc2[nH]1 [(233)] | 1.59 µM | 152%
Clc1nc(NCc2ccncc2)c2nc(C3CCC3)[nH]c2n1 [(234)] | 19.9 µM | 94%

Compound | EC (maximum kinetin efficacy) | Emax
CNCc1nc2c(NCc3ccco3)nc(Cl)nc2[nH]1 [(235)] | – | 80%
Clc1nc(NCc2ccncn2)c2nc(C3CCC3)[nH]c2n1 [(236)] | – | 83%
COc1cc(CNc2nc(Cl)nc3[nH]ccc23)ccn1 [(237)] | – | 21%
NC(=O)c1nc2c(NCc3ccco3)nc(Cl)nc2[nH]1 [(238)] | 64.8 µM | 64%
CC(C)Oc1nc2c(NCc3ccco3)nc(Cl)nc2[nH]1 [(239)] | 2.6 µM | 147%
Clc1nc(NCc2nccs2)c2nc(C3CCC3)[nH]c2n1 [(240)] | 18.2 µM | 124%
COc1cc(CNc2nc(Cl)nc3[nH]cnc23)ccn1 [(241)] | – | 13%
NC(=O)c1nc2c(NCc3ccncc3)nc(Cl)nc2[nH]1 [(242)] | – | 31%
CCNc1nc2c(NCc3ccco3)nc(Cl)nc2[nH]1 [(243)] | 17 µM | 120%
CNc1nc2c(NCc3ccncc3)nc(Cl)nc2[nH]1 [(244)] | 7.05 µM | 150%
CNc1nc2c(NCc3nccs3)nc(Cl)nc2[nH]1 [(245)] | 15.4 µM | 122%
Cc1noc(-c2cc3c(NCc4ccco4)nc(Cl)nc3[nH]2)n1 [(246)] | – | 22%
CNc1nc2c(NCc3ccncn3)nc(Cl)nc2[nH]1 [(247)] | 5.41 µM | 215%
O=c1cc(CNc2nc(Cl)nc3[nH]ccc23)cc[nH]1 [(248)] | – | 10%
OCCCOc1nc2c(NCc3ccco3)nc(Cl)nc2[nH]1 [(249)] | 0.72 µM | 256%
CNC(=O)c1nc2c(NCc3ccncc3)nc(Cl)nc2[nH]1 [(250)] | 62.8 µM | 63%
Clc1cc(NCc2ccncc2)c2nc[nH]c2n1 [(251)] | 3.65 µM | 258%
CC(=O)Oc1c[nH]c2nc(Cl)nc(NCc3ccco3)c12 [(252)] | – | 43%
Clc1nc(NCc2ccco2)c2ncsc2n1 [(253)] | 11.8 µM | 187%
OCCn1cnc2c(NCc3ccco3)cc(Cl)nc21 [(254)] | 13.2 µM | 145%
O=c1cc(CNc2nc(Cl)nc3[nH]cnc23)cc[nH]1 [(255)] | – | 42%
Clc1nc(NCc2ccncc2)c2ncsc2n1 [(256)] | 17.4 µM | 129%
O=C1Cc2c(NCc3ccncc3)nc(Cl)nc2N1 [(257)] | – | 62%

Compound | EC (maximum kinetin efficacy) | Emax
CNC(=O)c1nc2c(NCc3ccncn3)nc(Cl)nc2[nH]1 [(258)] | 15.8 µM | 165%
Clc1nc(NCc2ccco2)c2nc(OC3CCC3)[nH]c2n1 [(259)] | 0.38 µM | 109%
CCOc1nc2c(NCc3nccs3)nc(Cl)nc2[nH]1 [(260)] | 3.43 µM | 130%
COc1nc2c(NCc3ccncn3)nc(Cl)nc2[nH]1 [(261)] | 2.62 µM | 143%
CNC(=O)c1nc2c(NCc3ccco3)nc(Cl)nc2[nH]1 [(262)] | 28.4 µM | 64%
Cc1cnccc1CNc1nc(Cl)nc2[nH]ccc12 [(263)] | 27.4 µM | 105%
Ic1nc(NCc2ccco2)c2nc[nH]c2n1 [(264)] | – | 44%
Clc1nc(NCc2nccs2)c2nc(OC3COC3)[nH]c2n1 [(265)] | 7.33 µM | 119%
Brc1nc(NCc2ccco2)c2nc[nH]c2n1 [(266)] | 8.52 µM | 106%
Clc1nc(NCc2ccncn2)c2nc(OC3COC3)[nH]c2n1 [(267)] | 2.4 µM | 183%
Cc1cnccc1CNc1nc(Cl)nc2[nH]cnc12 [(268)] | – | 19%
Clc1nc(NCc2ccncc2)c2nc(OC3COC3)[nH]c2n1 [(272)] | 2.6 µM | 155%
CCOc1nc2c(NCc3ccncc3)nc(Cl)nc2[nH]1 [(273)] | 0.62 µM | 254%
OCCCOc1nc2c(NCc3nccs3)nc(Cl)nc2[nH]1 [(276)] | 1.13 µM | 188%
CC(C)Oc1nc2c(NCc3ccncc3)nc(Cl)nc2[nH]1 [(277)] | 0.46 µM | 197%
COc1nc2c(NCc3nccs3)nc(Cl)nc2n1CCO [(278)] | 6.37 µM | 141%
Nc1nc(NCc2ccco2)c2nn[nH]c2n1 [(279)] | – | 54%
CNOc1nc2c(NCc3ccco3)nc(Cl)nc2[nH]1 [(280)] | – | 25%
Clc1cc(NCc2nccs2)n2ncnc2n1 [(281)] | – | 17%
CCCOc1nc2c(NCc3ccncc3)nc(Cl)nc2[nH]1 [(282)] | 0.42 µM | 233%
Clc1cc(NCc2ccncc2)n2ncnc2n1 [(283)] | – | 29%
